Reference: PubChem BioAssay AID504861 (Broad Institute, 2011)
Calls of active or inactive are those of the source.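 The calls were made as follows: active = compounds lowering cell viability signal with fitted half-maximal concentration at most ten times their highest tested concentration; inconclusive = flat fit with 30 to 70% signal loss, or poor fit; inactive = the rest.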

What follows are compounds tested on HEK293T viability, CellTiter-Glo ATP luminescence, 48 h (assay: HEK293T cell viability reduction, dose response, cytotoxicity control for LMP1 NF-kB inhibitor project, CellTiter-Glo luminescence, cherry-picks (AID 504861)).
With `Oc1ccc2ccccc2c1/C=N/Nc1nnc(-c2ncc[nH]2)c2ccccc12` the AC50 was 2.32 µM.
For `C/C(=N/NC(=O)c1ccc(C(C)(C)C)cc1)c1ccccn1`, the AC50 was 3.38 µM.
Work on `C(=Cc1cnc2ccccc2n1)c1ccc2c(c1)OCO2` yielded an AC50 of 1.74 µM.
For `O=C(c1ccccc1)C(CCC(CN1CCOCC1)C(=O)c1ccccc1)CN1CCOCC1` (centres undefined), the AC50 was 2.57 µM.
Work on `CCCC(=O)NC(c1cccc([N+](=O)[O-])c1)c1ccc2cccnc2c1O` (centres undefined) yielded an AC50 of 3.59 µM.
In the case of `Cc1ccc(C(=O)Nc2ccc3c(c2)OCCO3)c(Cl)c1`, the AC50 is reported as > 26 µM (inactive).
With `c1ccc(-c2nc(-c3ccccn3)no2)cc1` the AC50 was 7.87 µM.
For `CC(=NNC(=S)N1CCCC1)c1ccccn1`, the AC50 was 4.56 µM.
`NC(=S)NN=Cc1nccc2c(C(F)(F)F)cccc12` gave an AC50 of 5.67 µM.
For `c1ccn2cc(-c3ccc4c(c3)OCCO4)nc2c1`, the AC50 was 16.1 µM.
For `O=C(CF)N(O)c1ccc(C=Cc2ccccc2)cc1`, the AC50 was > 26 µM (inactive).
Compound `Cc1cccc(-n2ncc(Cl)c(Cl)c2=O)c1` has an AC50 of 5.2 µM.
In the case of `CCN(CC)c1ccc(C(NC(=O)C(C)C)c2ccc3cccnc3c2O)cc1` (centres undefined), the AC50 is reported as 4.34 µM.
In the case of `O=C(N/N=C/c1c(O)ccc2ccccc12)c1ccc(Br)o1`, the AC50 is reported as 4.46 µM.
Work on `CC(=NNc1nc2ccccc2s1)c1ncccn1` yielded an AC50 of 13.8 µM.
For `Oc1ccccc1/C=N/Nc1nccnc1Cl`, the AC50 was > 26 µM (inactive).
Compound `C#Cc1cc(N2CCN(C(=O)c3ccoc3)CC2)n2nc(-c3cccc(Cl)c3)cc2n1` has an AC50 of 5.11 µM.
With `COc1ccc(C(=O)NC2CCCc3c2cnn3-c2cccc(C)c2C)c(OC)n1` (centres undefined) the AC50 was 24.1 µM.
Work on `C(=N\Nc1nc2ccccc2[nH]1)/c1cccc2cccnc12` yielded an AC50 of 3.24 µM.
`CCOc1ccc(Br)cc1/C(C)=N\NC1=NCCN1` showed an AC50 of 3.69 µM.
In the case of `NC(=S)NN=Cc1nccc2c(C(F)(F)C(F)(F)C(F)(F)F)cccc12`, the AC50 is reported as 1.52 µM.
With `COc1cccc(/C=N/Nc2ncccc2[N+](=O)[O-])c1OC` the AC50 was 18.8 µM.
With `CCCCCN=Cc1c(C)[nH]n(-c2nc3ccccc3s2)c1=O` the AC50 was 1.33 µM.
Compound `Cc1ccc2nc(-c3ccccn3)[nH]c2c1` has an AC50 of 21.6 µM.
Compound `CCN(CC)CCC(=O)N1C/C(=C/c2ccccc2)C(=O)/C(=C\c2ccccc2)C1` has an AC50 of 3.88 µM.
In the case of `O=[N+]([O-])c1c(Nc2cccc(O)c2)cc(Cl)c2nonc12`, the AC50 is reported as 4.39 µM.
For `O=C(Nc1ccc2c(c1)OCCO2)c1ccccn1`, the AC50 was 21.2 µM.
Compound `O=C(Nc1nnc(SCc2ccc(F)cc2)s1)c1ccccn1` has an AC50 of 25.9 µM.
In the case of `CCN1CCN(Cc2ccc(NC(=O)c3ccc(C)c(NC(=O)c4cc(-c5ccc(Br)cc5)n[nH]4)c3)cc2C(F)(F)F)CC1`, the AC50 is reported as 15.6 µM.
Work on `CCCCC(=O)NC(c1ccc(OC)cc1)c1ccc2cccnc2c1O` (centres undefined) yielded an AC50 of 16.2 µM.
With `Cc1csc(SCC(=O)c2cc(C)n(Cc3cccs3)c2C)n1` the AC50 was > 26 µM (inactive).
Compound `CCOc1cccc(/C=N/Nc2ccc(S(=O)(=O)N(CC)CC)cn2)c1O` has an AC50 of 1.69 µM.
Work on `Cc1ccc(CSc2nc3ccncc3[nH]2)cc1` yielded an AC50 of 20.9 µM.
With `CCN(CC)S(=O)(=O)c1cccc(NC(=O)Nc2cccc(C(F)(F)F)c2)c1` the AC50 was 19.1 µM.
`Cc1ccsc1/C=C/c1ccc2ccccc2n1` gave an AC50 of 25.6 µM.
Work on `COc1ccc(/C=N/Nc2cc(C)nc3ccc(OC)cc23)c(OC)c1` yielded an AC50 of 5.04 µM.
`CC(=NNC(=S)N1CCCCCC1)c1ccccn1` gave an AC50 of 2.18 µM.
Work on `CCCCC(=O)NC(c1ccc(Cl)cc1Cl)c1ccc2cccnc2c1O` (centres undefined) yielded an AC50 of 3.16 µM.
`CCOC(=O)c1cn2nc(N3CCCCC3)ccc2n1` was tested, and the AC50 was > 26 µM (inactive).
`COc1ccccc1NC(=S)NN=C(C)c1ccccn1` gave an AC50 of 0.403 µM.
In the case of `CCCC(=O)NC(c1ccccc1Cl)c1ccc2cccnc2c1O` (centres undefined), the AC50 is reported as 4.36 µM.
For `COc1cccc(/C=N/Nc2nccnc2Cl)c1O`, the AC50 was 3.79 µM.
`COc1ccc(C(=O)C(CN2CCOCC2)c2ccccc2)cc1F` (centres undefined) showed an AC50 of 8.32 µM.
In the case of `O=C(O)c1cc(/C=C/c2ccc(N3CCOCC3)cc2)nc2ccccc12`, the AC50 is reported as > 26 µM (inactive).
Compound `CC(C)OC(=O)c1ccc(NCc2cc(O)ccc2O)cc1Cl` has an AC50 of 6.74 µM.
In the case of `CC(=NNc1nc2ccccc2o1)c1ncccn1`, the AC50 is reported as 16 µM.
For `COc1ccccc1/C=C/C(=O)c1ccc(Cl)cc1`, the AC50 was 12.4 µM.
For `CC(=NNC(=S)Nc1ccc(C)cc1)c1ccccn1`, the AC50 was 0.624 µM.
With `O=C(CCc1ccccc1)NC(c1cccs1)c1cc(Cl)c2cccnc2c1O` (centres undefined) the AC50 was 9.28 µM.
`Cc1ccc(C(=O)/C=C/C(=O)c2ccc(C)cc2)cc1` was tested, and the AC50 was 7.08 µM.
`COc1ccc(C=C2CS(=O)(=O)CC(=Cc3ccc(OC)cc3)C2=O)cc1` showed an AC50 of 11.8 µM.
`C#CCn1c(S(=O)(=O)Cc2ccc(F)cc2)nc(-c2ccccc2)c1-c1ccccc1` was tested, and the AC50 was > 26 µM (inactive).
`CCOc1ccc(OCC(=O)Nc2nccs2)cc1` showed an AC50 of 11.3 µM.
With `Nc1nc2ccccc2n1C(=O)c1ccccc1` the AC50 was > 26 µM (inactive).
Work on `O=C1c2cccc3c([N+](=O)[O-])ccc(c23)C(=O)N1c1ccccn1` yielded an AC50 of 4.11 µM.
With `c1ccc(CCCN2CCN(CCOC(c3ccccc3)c3ccccc3)CC2)cc1` the AC50 was 16.5 µM.
Work on `COc1ccc(-c2ccc(NC(=O)c3ccco3)cc2)nn1` yielded an AC50 of 7.75 µM.
With `CCC(=O)NC(c1cc(Cl)c2cccnc2c1O)C(C)C` (centres undefined) the AC50 was 9.32 µM.
With `O=C(N/N=C/c1ccc[nH]1)c1ccc(COc2cccc3cccnc23)cc1` the AC50 was 3.99 µM.
For `Fc1ccc2[nH]c3c(N4CCSCC4)ncnc3c2c1`, the AC50 was 9.97 µM.
For `Cc1cc(C)nc(SCc2ccc(C(=O)N/N=C/c3cccc(O)c3O)cc2)n1`, the AC50 was 20.3 µM.
Compound `CC(=O)NC(c1ccc2ccccc2c1)c1ccc2cccnc2c1O` (centres undefined) has an AC50 of 1.32 µM.
For `CCc1nc(SCC(=O)c2ccc3c(c2)OCCO3)c2ccccc2n1`, the AC50 was > 26 µM (inactive).
Work on `c1ccc(CN2CCN(c3ncnc4c3[nH]c3ccccc34)CC2)cc1` yielded an AC50 of 11.8 µM.
For `CC(=O)NC(c1ccc(C(C)C)cc1)c1ccc2cccnc2c1O` (centres undefined), the AC50 was 1.2 µM.
For `Oc1ccc(C=NNC(=S)Nc2ccccc2)nc1`, the AC50 was 4.96 µM.
Work on `O=C(NC1CCCCCCC1)c1cc(COc2ccc3ncccc3c2)on1` yielded an AC50 of 1.3 µM.
For `COc1ccc(/C=C/c2nc3ccccc3n2C)cc1`, the AC50 was 2.27 µM.
With `CCCCC(=O)NC(c1ccc(OC)c(OC)c1)c1ccc2cccnc2c1O` (centres undefined) the AC50 was 4.63 µM.
